Experimental data from patent publication US20200231638A1, “STABILIZED ANTI-MICROBIAL PEPTIDES” (priority 2015, published 2020).
Converted amounts (≈) assume the structure as drawn. Bridge positions count the residues as written; N and C are the ends. Square brackets hold non-standard residues; d marks the D form. Ends that are not written are not given here. Peptide text beside a SMILES is read from it. R8 = C=CCCCCCC[C@@](C)(N)C(=O)O; S5 = C=CCCC[C@](C)(N)C(=O)O; Nle = CCCC[C@H](N)C(=O)O

Legend:
P. aeruginosa = type: cell-based, Pseudomonas aeruginosa
Procedure, shortened: (§1)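 Broth microdilution; anion-exchange-refined MHB; overnight culture at 37° C, diluted and regrown; inoculum 5×10^5 CFU/ml final; peptides serially diluted in water; 20-24 h, 37° C; MIC = lowest concentration without visible growth.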

S. aureus = type: cell-based, Staphylococcus aureus
Procedure, shortened: as §1

human red blood cells = type: cell-based; details: for % Hemolysis at 25 μg/ml: red cells of human, 1 h
Procedure, shortened: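 Washed human RBCs as 1% (v/v) suspension in phosphate-buffered saline incubated 1 h at 37° C with serially diluted peptides. Hemoglobin release in supernatant measured spectrophotometrically (570 nm), % hemolysis relative to untreated and 1% Triton-X100 controls; MHC defined as concentration giving less than 1% release.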

E. coli = type: cell-based, Escherichia coli
Procedure, shortened: as §1

B. cereus = type: cell-based, Bacillus cereus
Procedure, shortened: as §1

S. marcescens = type: cell-based
Procedure: Antimicrobial Activity Assay:
The following microbroth dilution protocol was adapted to determine the minimum inhibitory concentration (MIC) of each peptide. First, Mueller-Hinton broth (MHB) was passed through an anion exchange column to remove polyanionic species and generate refined MHB. […] Briefly, bacterial cells was grown overnight in refined MHB at 37° C. and then diluted and allowed to grow again for several hours. Serial dilutions of peptide stocks in water (10 μl) were prepared using clear round-bottom polypropylene 96-well plates. Then 90 μl of bacteria in refined MHB was added to give a final inoculum of 5×10^5 CFU/ml. The plates were then covered with porous tape to reduce evaporation, and incubated for 20-24 hours at 37° C. The MIC is the minimum peptide concentration at which no visible growth was observed.

Q: For CCCC[C@H](NC(=O)[C@]1(C)CCCC=CCCCCCC[C@@](C)(NC(=O)[C@H](Cc2ccccc2)NC(=O)[C@H](CCCCN)NC(=O)[C@H](CCCCN)NC(=O)[C@H](C)NC(=O)[C@H](CO)NC(=O)[C@H](Cc2c[nH]cn2)NC(=O)[C@H](CC(C)C)NC(=O)[C@H](Cc2ccccc2)NC(=O)[C@H](CCCCN)NC(=O)CNC(=O)[C@@H](NC(=O)CN)[C@@H](C)CC)C(=O)N[C@@H](CCCCN)C(=O)N[C@@H](C)C(=O)N[C@@H](Cc2ccccc2)C(=O)N[C@@H](C(C)C)C(=O)NCC(=O)N[C@@H](CCC(=O)O)C(=O)N1)C(=O)N[C@@H](CC(N)=O)C(=O)N[C@@H](CO)C(N)=O [Mag(i + 7)12] (H-GIGKFLHSAKKF[R8]KAFVGE[S5][Nle]NS-NH2; staple 13-20 (inferred); N-terminus and C-terminus assumed), which “MIC P. aeruginosa” value (P. aeruginosa) is on record?
A: 3.1 µg/mL

Q: And the “MIC S. aureus” value (S. aureus)?
A: 12.5 µg/mL

Q: What about the “% Hemolysis at 25 μg/ml” value (human red blood cells) of the same molecule?
A: 80.3%

Q: And the “MIC E. coli” value (E. coli)?
A: 1.6 µg/mL

Q: What about the “MIC B. cereus” value (B. cereus) of the same molecule?
A: 3.1 µg/mL

Q: How did the “MIC P. aeruginosa” value (P. aeruginosa) turn out when CC[C@H](C)[C@H](NC(=O)CN)C(=O)NCC(=O)N[C@@H](CCCCN)C(=O)N[C@@H](Cc1ccccc1)C(=O)N[C@@H](CC(C)C)C(=O)N[C@@H](Cc1c[nH]cn1)C(=O)N[C@@H](CO)C(=O)N[C@@H](C)C(=O)N[C@@H](CCCCN)C(=O)N[C@@H](CCCCN)C(=O)N[C@@H](Cc1ccccc1)C(=O)NCC(=O)N[C@]1(C)CCCCCCC=CCCC[C@@](C)(C(=O)N[C@@H](CC(N)=O)C(=O)N[C@@H](CO)C(N)=O)NC(=O)[C@H]([C@@H](C)CC)NC(=O)[C@H](CCC(=O)O)NC(=O)CNC(=O)[C@H](C(C)C)NC(=O)[C@H](Cc2ccccc2)NC(=O)[C@H](C)NC1=O [Mag(i + 7)13] (H-GIGKFLHSAKKFG[R8]AFVGEI[S5]NS-NH2; staple 14-21 (inferred); N-terminus and C-terminus assumed) was run?
A: 6.2 µg/mL

Q: What about the “MIC S. aureus” value (S. aureus) of the same molecule?
A: 12.5 µg/mL

Q: And the “% Hemolysis at 25 μg/ml” value (human red blood cells)?
A: 63.6%

Q: And the “MIC E. coli” value (E. coli)?
A: 1.6 µg/mL

Q: What about the “MIC B. cereus” value (B. cereus) of the same molecule?
A: 3.1 µg/mL

Q: For CCCC[C@@H]1NC(=O)[C@H]([C@@H](C)CC)NC(=O)[C@H](CCC(=O)O)NC(=O)CNC(=O)[C@H](C(C)C)NC(=O)[C@H](Cc2ccccc2)NC(=O)[C@](C)(NC(=O)[C@H](CCCCN)NC(=O)CNC(=O)[C@H](Cc2ccccc2)NC(=O)[C@H](CCCCN)NC(=O)[C@H](CCCCN)NC(=O)[C@H](C)NC(=O)[C@H](CO)NC(=O)[C@H](Cc2c[nH]cn2)NC(=O)[C@H](CC(C)C)NC(=O)[C@H](Cc2ccccc2)NC(=O)[C@H](CCCCN)NC(=O)CNC(=O)[C@@H](NC(=O)CN)[C@@H](C)CC)CCCCCCC=CCCC[C@@](C)(C(=O)N[C@@H](CO)C(N)=O)NC1=O [Mag(i + 7)14] (H-GIGKFLHSAKKFGK[R8]FVGEI[Nle][S5]S-NH2; staple 15-22 (inferred); N-terminus and C-terminus assumed), which “MIC P. aeruginosa” value (P. aeruginosa) is on record?
A: 6.2 µg/mL

Q: What about the “MIC S. aureus” value (S. aureus) of the same molecule?
A: 1.6 µg/mL

Q: What about the “% Hemolysis at 25 μg/ml” value (human red blood cells) of the same molecule?
A: 68.1%

Q: And the “MIC E. coli” value (E. coli)?
A: 1.6 µg/mL

Q: And the “MIC B. cereus” value (B. cereus)?
A: 1.6 µg/mL

Q: What does the source list for CCCC[C@H](NC(=O)[C@@H](NC(=O)[C@H](CCC(=O)O)NC(=O)[C@H](C)NC(=O)[C@]1(C)CCCC=CCCCCCC[C@@](C)(NC(=O)[C@H](C)NC(=O)[C@H](C)NC(=O)[C@H](Cc2c[nH]cn2)NC(=O)[C@H](CC(C)C)NC(=O)[C@H](Cc2ccccc2)NC(=O)[C@H](CCCCN)NC(=O)CNC(=O)[C@@H](NC(=O)CN)[C@@H](C)CC)C(=O)N[C@@H](CCCCN)C(=O)N[C@@H](Cc2ccccc2)C(=O)N[C@@H](C)C(=O)N[C@@H](CCCCN)C(=O)N[C@@H](C)C(=O)N[C@@H](Cc2ccccc2)C(=O)N1)[C@@H](C)CC)C(=O)N[C@@H](CC(N)=O)C(=O)N[C@@H](CO)C(N)=O [MagStap 4] (H-GIGKFLHAA[R8]KFAKAF[S5]AEI[Nle]NS-NH2; staple 10-17; N-terminus assumed)?
A: MIC S. marcescens (S. marcescens): >50 µg/mL; hemolytic activity (in words) (human red blood cells): highest hemolytic activity; MIC E. coli (E. coli): 12.5 µg/mL (≈ 4.95 µM); MIC B. cereus (B. cereus): 6.2 µg/mL (≈ 2.46 µM)

Q: What does the source list for CCCC[C@H](NC(=O)[C@@H](NC(=O)[C@H](CCC(=O)O)NC(=O)[C@]1(C)CCCC=CCCCCCC[C@@](C)(NC(=O)[C@H](CCCCN)NC(=O)[C@H](C)NC(=O)[C@H](C)NC(=O)[C@H](Cc2c[nH]cn2)NC(=O)[C@H](CC(C)C)NC(=O)[C@H](Cc2ccccc2)NC(=O)[C@H](CCCCN)NC(=O)CNC(=O)[C@@H](NC(=O)CN)[C@@H](C)CC)C(=O)N[C@@H](Cc2ccccc2)C(=O)N[C@@H](C)C(=O)N[C@@H](CCCCN)C(=O)N[C@@H](C)C(=O)N[C@@H](Cc2ccccc2)C(=O)N[C@@H](C(C)C)C(=O)N1)[C@@H](C)CC)C(=O)N[C@@H](CC(N)=O)C(=O)N[C@@H](CO)C(N)=O [MagStap 5] (H-GIGKFLHAAK[R8]FAKAFV[S5]EI[Nle]NS-NH2; staple 11-18; N-terminus assumed)?
A: MIC S. marcescens (S. marcescens): >50 µg/mL; hemolytic activity (in words) (human red blood cells): lowest hemolytic activity; MIC E. coli (E. coli): 12.5 µg/mL (≈ 4.9 µM); MIC B. cereus (B. cereus): 12.5 µg/mL (≈ 4.9 µM)

Q: Which results are given for CCCC[C@H](NC(=O)[C@@H](NC(=O)[C@]1(C)CCCC=CCCCCCC[C@@](C)(NC(=O)[C@H](CCCCN)NC(=O)[C@H](CCCCN)NC(=O)[C@H](C)NC(=O)[C@H](C)NC(=O)[C@H](Cc2c[nH]cn2)NC(=O)[C@H](CC(C)C)NC(=O)[C@H](Cc2ccccc2)NC(=O)[C@H](CCCCN)NC(=O)CNC(=O)[C@@H](NC(=O)CN)[C@@H](C)CC)C(=O)N[C@@H](C)C(=O)N[C@@H](CCCCN)C(=O)N[C@@H](C)C(=O)N[C@@H](Cc2ccccc2)C(=O)N[C@@H](C(C)C)C(=O)N[C@@H](C)C(=O)N1)[C@@H](C)CC)C(=O)N[C@@H](CC(N)=O)C(=O)N[C@@H](CO)C(N)=O [MagStap 6] (H-GIGKFLHAAKK[R8]AKAFVA[S5]I[Nle]NS-NH2; staple 12-19; N-terminus assumed)?
A: MIC S. marcescens (S. marcescens): >50 µg/mL; MIC E. coli (E. coli): 3.1 µg/mL (≈ 1.25 µM); MIC B. cereus (B. cereus): 3.1 µg/mL (≈ 1.25 µM)

Q: CCCC[C@H](NC(=O)[C@]1(C)CCCC=CCCCCCC[C@@](C)(NC(=O)[C@H](Cc2ccccc2)NC(=O)[C@H](CCCCN)NC(=O)[C@H](CCCCN)NC(=O)[C@H](C)NC(=O)[C@H](C)NC(=O)[C@H](Cc2c[nH]cn2)NC(=O)[C@H](CC(C)C)NC(=O)[C@H](Cc2ccccc2)NC(=O)[C@H](CCCCN)NC(=O)CNC(=O)[C@@H](NC(=O)CN)[C@@H](C)CC)C(=O)N[C@@H](CCCCN)C(=O)N[C@@H](C)C(=O)N[C@@H](Cc2ccccc2)C(=O)N[C@@H](C(C)C)C(=O)N[C@@H](C)C(=O)N[C@@H](CCC(=O)O)C(=O)N1)C(=O)N[C@@H](CC(N)=O)C(=O)N[C@@H](CO)C(N)=O [MagStap 7] (H-GIGKFLHAAKKF[R8]KAFVAE[S5][Nle]NS-NH2; staple 13-20; N-terminus assumed) was tested. Which “MIC S. marcescens” value (S. marcescens) did it give?
A: >50 µg/mL

Q: What about the “MIC E. coli” value (E. coli) of the same molecule?
A: 6.2 µg/mL (≈ 2.41 µM)

Q: What about the “MIC B. cereus” value (B. cereus) of the same molecule?
A: 6.2 µg/mL (≈ 2.41 µM)

Q: What does the source list for CC(C)C[C@H](NC(=O)[C@H](Cc1ccc(O)cc1)NC(=O)[C@H](Cc1c[nH]cn1)NC(=O)[C@@H](NC(=O)[C@H](CC(C)C)NC(=O)[C@]1(C)CCCC=CCCC[C@](C)(NC(=O)[C@H](Cc2c[nH]cn2)NC(=O)[C@H](CCCCN)NC(=O)CNC(=O)[C@@H](NC(=O)[C@H](Cc2c[nH]cn2)NC(=O)[C@H](C)NC(=O)[C@H](CCCCN)NC(=O)[C@H](CCCCN)NC(=O)[C@H](CCCCN)NC(=O)[C@]2(C)CCCC=CCCC[C@](C)(NC(=O)CN)C(=O)NCC(=O)N[C@@H](CO)C(=O)N[C@@H](Cc3ccccc3)C(=O)N2)C(C)C)C(=O)NCC(=O)N[C@@H](CCCCN)C(=O)N[C@@H](C)C(=O)N1)[C@@H](C)O)C(N)=O [Pleu(i + 4)1, 15(A9K)] (H-G[S5]GSF[S5]KKKAHVGKH[S5]GKA[S5]LTHYL-NH2; staple 2-6, 16-20; N-terminus assumed)?
A: MIC P. aeruginosa (P. aeruginosa): 1.6 µg/mL; MIC S. aureus (S. aureus): 3.1 µg/mL; % Hemolysis at 25 μg/ml (human red blood cells): 16.3%; MIC E. coli (E. coli): 1.6 µg/mL; MIC B. cereus (B. cereus): 3.1 µg/mL

Q: With CC(C)C[C@H](NC(=O)[C@H](Cc1ccc(O)cc1)NC(=O)[C@H](Cc1c[nH]cn1)NC(=O)[C@@H](NC(=O)[C@H](CC(C)C)NC(=O)[C@]1(C)CCCC=CCCC[C@](C)(NC(=O)[C@H](Cc2c[nH]cn2)NC(=O)[C@H](CCCCN)NC(=O)CNC(=O)[C@@H](NC(=O)[C@H](Cc2c[nH]cn2)NC(=O)[C@H](C)NC(=O)[C@H](C)NC(=O)[C@H](CCCCN)NC(=O)[C@H](CCCCN)NC(=O)[C@]2(C)CCCC=CCCC[C@](C)(NC(=O)CN)C(=O)NCC(=O)N[C@@H](CO)C(=O)N[C@@H](Cc3ccccc3)C(=O)N2)C(C)C)C(=O)NCC(=O)N[C@@H](CCCCN)C(=O)N[C@@H](C)C(=O)N1)[C@@H](C)O)C(N)=O [Pleu(i + 4)1, 15] (H-G[S5]GSF[S5]KKAAHVGKH[S5]GKA[S5]LTHYL-NH2; staple 2-6, 16-20; N-terminus assumed) as the molecule, how does the “MIC P. aeruginosa” value (P. aeruginosa) read?
A: 1.6 µg/mL

Q: And the “MIC S. aureus” value (S. aureus)?
A: 1.6 µg/mL

Q: What about the “% Hemolysis at 25 μg/ml” value (human red blood cells) of the same molecule?
A: 88.2%

Q: What about the “MIC E. coli” value (E. coli) of the same molecule?
A: 1.6 µg/mL

Q: What about the “MIC B. cereus” value (B. cereus) of the same molecule?
A: 3.1 µg/mL

Q: Which results are given for “GWGSFFKKAAHVGKHVGKAALTHYL-NH2 [Pleurocidin-NH2, reference compound]”?
A: MIC P. aeruginosa (P. aeruginosa): 3.1 µg/mL; MIC S. aureus (S. aureus): 6.2 µg/mL; % Hemolysis at 25 μg/ml (human red blood cells): 0.5%; MIC E. coli (E. coli): 3.1 µg/mL; MIC B. cereus (B. cereus): 6.2 µg/mL
